Source: patent US5723139A, “Skin care compositions containing a polycyclic triterpene carboxylic acid and a retinoid” (Chesebrough-Pond's USA Co., Division of Conopco, Inc., priority 1996, dated 1998)
“Also recorded” adds a separate entry of the source.

Tests used:
[1] = tested on: human keratinocyte transglutaminase I (TGase I); assay: Transglutaminase I ELISA in cultured keratinocytes, normalized to DNA content (Examples 2 and 3 procedure); type: cell-based; settings: for mean TGase/DNA × 10^5 ± s.d / effect on keratinocyte TG1 level / differentiation (in words) / activity at 1 µM / activity at 0.25 µM / activity at 0.0025 µM: 72 hours; for mean TGase/DNA × 10^5 ± s.d / activity at 1 µM / activity at 0.25 µM / activity at 0.0025 µM: n = 3; for activity at 1 µM / activity at 0.25 µM / activity at 0.0025 µM: Homo sapiens, Keratinocyte, % of control; for activity at 0.25 µM: Example 3, Table 3; for activity at 0.0025 µM: Example 2, Table 2; for effect on keratinocyte differentiation / transglutaminase I levels (in words, summary): summary of Examples 1-3
Experimental: Human keratinocytes, isolated from neonatal foreskin by trypsin treatment were grown in Dulbecco Modification Eagle (DME) Hams F12 (1:1) medium/10% fetal calf serum in the presence of irradiated 3T3 mouse fibroblasts for establishing dividing keratinocyte colonies. Cells were grown under the above condition until their second passage and kept frozen for future use. Frozen second passage keratinocytes were thawed and plated into the above medium and grown for five days before they were switched to a serum-free MCDB 153-based medium keratinocyte growth medium (KGM) from Clonetics Corporation, San Diego, Calif., containing 0.15 mM Ca, or keratinocyte serum-free media (KSFM) from GIBCO containing 0.09 mM Ca). On day 7, when the cells were 80-90% confluent, they were trypsinized and plated in the serum-free medium for the various experiments.
During the process of terminal differentiation in the epidermis, a 15 nm thick layer of protein, known as the cornified envelope (CE) is formed on the inner surface of the cell periphery. The CE is composed of numerous distinct proteins which have been cross-linked together by the formation of N^ε -(γ-glutamyl) lysine isodipeptide bonds catalyzed by the action of at least two different transglutaminases (TGases) expressed in the epidermis. TGase I is expressed in abundance in the differentiated layers of the epidermis, especially the granular layer, but is absent in the undifferentiated basal epidermis. Thus TGase I is a useful marker of epidermal keratinocyte differentiation with high TGase I levels indicating a more differentiated state. An ELISA based TGase I assay, using a TGase I antibody, was used to assess the state of differentiation of the cultured keratinocytes in the examples that follow.
Keratinocytes (cultured as described above) were plated in 96 well plates at a density of 3,000 cells per well in 200 μl of cell culture media. After incubation for four days, the media was changed to media containing test compounds (six replicates per test). The cells were cultured for a further 72 hours after which time the media was aspirated and the plates stored at -70° C. After the plates were removed from the freezer, the cells were further freezed fractured by freezing and thawing and then washed 3x with PBS. The cells were incubated for one hour at room temperature (R/T) with TBS/5% BSA buffer. Cells were then incubated with 100 μl of monoclonal anti-human transglutaminase (IgG) mouse antibody (primary antibody) obtained from Biomedical Technologies Inc. diluted 1:2000 in TBS/1% BSA buffer for two hours at 37° C., and then rinsed six times with wash buffer (TBS/1% BSA/0.05% Tween-20). Cells were next incubated with 100 μl of Fab fragment, peroxidase conjugated anti-mouse IgG antibody (secondary antibody) from Amersham diluted 1:4,000 in wash buffer for two hours at 37° C. and then rinsed three times with wash buffer and three times with PBS. Cells were incubated with substrate solution (4mg o-phenylene diamine and 3.3 μl 30% H2 O2 in 10 mL 0.1M citrate buffer, pH 5.0) for five minutes at R/T and in darkness (under aluminum foil). The reaction was stopped by the addition of 50 μl 4N H2SO4. The absorbance of samples was read at 492 nm in the plate reader. Out of the six replicates, four were treated with both antibodies, two were treated only with the secondary antibody (i.e., to determine the background binding of the enzyme conjugated antibody). Transglutaminase I levels were determined by subtracted background from the readings from each treatment and determining the mean s.d. for the replicates exposed to both antibodies.
The level of TGase-1 detected after treatment of the cells could be influenced by cell number, i.e., the greater the number of cells the greater the level of TGase-1 detected. The level of TGase-1 was normalized to DNA content of the cells in the same well thus eliminating variation due to differences in cell number. […]

[2] = tested on: human keratinocyte transglutaminase I (TGase I); assay: Transglutaminase I ELISA in cultured keratinocytes, normalized to DNA content (Example 1 procedure); type: cell-based; settings: 2.5×10^-7 M, 2.5×10^-8 M and 2.5×10^-9 M, vs ethanol control
Experimental: Human keratinocytes, isolated from neonatal foreskin by trypsin treatment were grown in Dulbecco Modification Eagle (DME) Hams F12 (1:1) medium/10% fetal calf serum in the presence of irradiated 3T3 mouse fibroblasts for establishing dividing keratinocyte colonies. Cells were grown under the above condition until their second passage and kept frozen for future use. […] On day 7, when the cells were 80-90% confluent, they were trypsinized and plated in the serum-free medium for the various experiments.
During the process of terminal differentiation in the epidermis, a 15 nm thick layer of protein, known as the cornified envelope (CE) is formed on the inner surface of the cell periphery. […]
Keratinocytes (cultured as described above) were plated in 96 well plates at a density of 3,000 cells per well in 200 μl media. […] The absorbance of samples was read at 492 nm in the plate reader. […] TGase levels were determined by subtracting background from the readings from each treatment and determining mean±s.d. for the replicates exposed to both Ab.
The level of TGase-1 was normalized to DNA content of the cells in the same well thus eliminating variation due to differences in cell number. DNA quantitation is a particularly useful indicator of cell number, including keratinocyte cell number, because each cell has to all intents and purposes an identical genome and therefore an identical quantity of DNA. […]

skin keratinocytes = assay: Thymidine incorporation / proliferation of skin keratinocytes; type: cell-based, human; settings: summary of Examples 1-3
[3] = Example 2, 2.5×10^-9 M retinoic acid or retinol, 10^-6 M glycyrrhizic acid
[4] = Example 3, 2.5×10^-7 M retinoic acid or retinol, 10^-6 M oleanolic acid

SMILES | mean TGase/DNA × 10^5 ± s.d ([1]; 10^-6 M, Table 2) | effect on keratinocyte TG1 level / differentiation (in words) [1, 3] | activity at 1 µM ([1]; 10^-6 M, Table 2) | mean TGase/DNA × 10^5 ± s.d ([1]; 10^-6 M, Table 3) | effect on keratinocyte TG1 level / differentiation (in words) [1, 4] | activity at 1 µM ([1]; 10^-6 M, Table 3) | effect on keratinocyte differentiation / transglutaminase level (in words) [2] | mean TGase/DNA × 10^5 ± s.d ([1]; 2.5 × 10^-7 M, Table 3) | mean TGase/DNA × 10^5 ± s.d ([1]; 2.5 × 10^-9 M, Table 2) | activity at 0.25 µM ([1]; 2.5 × 10^-7 M) | activity at 0.0025 µM ([1]; 2.5 × 10^-9 M) | effect on keratinocyte differentiation / transglutaminase I levels (in words, summary) [1] | effect on thymidine incorporation / keratinocyte proliferation (in words) (skin keratinocytes)
CC1(C)[C@@H](O[C@H]2O[C@H](C(=O)O)[C@@H](O)[C@H](O)[C@H]2O[C@@H]2O[C@H](C(=O)O)[C@@H](O)[C@H](O)[C@H]2O)CC[C@]2(C)[C@H]3C(=O)C=C4[C@@H]5C[C@@](C)(C(=O)O)CC[C@]5(C)CC[C@@]4(C)[C@]3(C)CC[C@@H]12 [Glycyrrhizic acid] | 11.98 ± 3.00 × 10^5 | no inhibitory effect on the keratinocyte TG1 level | 99% |  |  |  |  |  |  |  |  |  | 
CC1(C)CC[C@]2(C(=O)O)CC[C@]3(C)C(=CC[C@@H]4[C@@]5(C)CC[C@H](O)C(C)(C)[C@@H]5CC[C@]43C)[C@@H]2C1 [Oleanolic Acid, Oleanolic acid] |  |  |  | 20.95 ± 1.95 × 10^5 | only a very slight inhibitory effect on the keratinocyte TG1 level | 93% |  |  |  |  |  |  | 
CC1=C(/C=C/C(C)=C/C=C/C(C)=C/C(=O)O)C(C)(C)CCC1 [RA, Retinoic acid, reference compound] |  | very effective at repressing keratinocyte TG1 levels |  |  | very effective at repressing keratinocyte TG1 levels |  | decreased keratinocyte differentiation; also recorded: dose dependent | 9.95 ± 2.74 × 10^5 | 4.04 ± 1.23 × 10^5 | 44% | 33% | decreased transglutaminase I levels | increased thymidine incorporation
CC1=C(/C=C/C(C)=C/C=C/C(C)=C/CO)C(C)(C)CCC1 [ROH, Retinol] |  | less effective than retinoic acid |  |  | less effective than retinoic acid |  | dose dependent | 18.27 ± 3.30 × 10^5 | 8.29 ± 2.11 × 10^5 | 81% | 68% | significantly less effective than retinoic acid at inhibiting keratinocyte differentiation | 
